One data set deals with T1, His6-GSK-3β (Homo sapiens, UniProt P49841).
T1 construct: made in house; host or cells: Sf21 insect cells (baculovirus)
Kind of data set: Inhibition of His6-GSK-3β kinase activity (ELISA-based format, time-resolved fluorescence readout). In kind it is biochemical. Particulars: class symbols; read-out: GSK3β IC50. The method in brief:
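Plate-bound recombinant GST-Rb substrate was phosphorylated for 30 min at 37° C by baculovirus-expressed His6-GSK-3β (200 ng/ml) at 20 μM ATP, 10 mM MgCl2, 2.5% DMSO. Europium time-resolved fluorescence of anti-phospho-Ser780 Rb signal gave inhibition, fitted to IC50.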

The next data set concerns the target T2, CDK5/GST-p25 (Homo sapiens, UniProt Q00535).
T2 construct: The final construct, encoding for full-length human CDK5; made in house; host or cells: Sf21 insect cells (baculovirus co-infection)
Kind of data set: Inhibition of CDK5/GST-p25 kinase activity (ELISA with time-resolved fluorescence readout). It counts as biochemical. Particulars: class symbols. The method in brief: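 The substrate, GST-Rb(773-928), was immobilised on plates and phosphorylated for 20 min at 37 °C by 2 ng/ml CDK5/GST-p25 in HEPES pH 7.2 with 10 µM ATP and 10 mM MgCl2. Both proteins were human and co-expressed in insect cells. Ser-780 phosphorylation was read by europium time-resolved fluorescence and converted to IC50.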
A general note: An ELISA detects its analyte on a solid surface through an enzyme-linked reagent.

This passage reports melting point and IC50 results from US8354414B2, “Substituted bicyclic pyrimidines” (Cephalon, Inc, priority 2006, dated 2013).

In general, melting point refers to the temperature of the solid-liquid transition. Usually IC50 stands for the concentration that inhibits the measured activity by half.

T1 sequence (P49841 2-419): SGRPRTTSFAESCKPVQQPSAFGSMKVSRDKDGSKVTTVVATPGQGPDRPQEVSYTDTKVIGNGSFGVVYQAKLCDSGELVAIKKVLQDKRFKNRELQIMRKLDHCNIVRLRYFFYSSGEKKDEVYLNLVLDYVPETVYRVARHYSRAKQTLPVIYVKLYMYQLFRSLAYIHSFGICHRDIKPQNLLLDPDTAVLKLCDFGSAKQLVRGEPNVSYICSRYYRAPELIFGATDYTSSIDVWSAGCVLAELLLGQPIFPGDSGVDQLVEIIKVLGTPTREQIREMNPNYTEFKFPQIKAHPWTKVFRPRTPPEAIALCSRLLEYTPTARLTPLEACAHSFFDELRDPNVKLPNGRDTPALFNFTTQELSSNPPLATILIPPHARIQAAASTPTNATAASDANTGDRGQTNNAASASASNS
T2 sequence (Q00535 whole entry): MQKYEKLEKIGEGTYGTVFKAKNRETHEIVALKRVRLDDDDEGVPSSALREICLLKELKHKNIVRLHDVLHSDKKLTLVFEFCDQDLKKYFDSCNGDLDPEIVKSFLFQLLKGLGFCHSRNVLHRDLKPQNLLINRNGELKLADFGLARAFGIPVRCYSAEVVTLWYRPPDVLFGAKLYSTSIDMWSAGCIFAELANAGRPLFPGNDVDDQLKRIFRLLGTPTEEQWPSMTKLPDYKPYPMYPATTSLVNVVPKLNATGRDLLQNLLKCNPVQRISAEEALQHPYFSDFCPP
T2 sequence (Q15078 108-307 partner limits assumed): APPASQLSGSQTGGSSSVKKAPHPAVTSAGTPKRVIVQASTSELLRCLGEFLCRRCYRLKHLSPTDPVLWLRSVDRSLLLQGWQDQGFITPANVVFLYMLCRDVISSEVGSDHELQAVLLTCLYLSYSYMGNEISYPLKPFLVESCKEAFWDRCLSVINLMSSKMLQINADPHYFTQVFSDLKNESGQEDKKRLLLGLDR

Compound `O=C1Nc2ccc(Br)cc2C1c1ncnc2c1cnn2C1CCCCC1` (stereo not drawn) [Example 75, 5-Bromo-3-(1-Cyclohexyl-1H-pyrazolo[3,4-d]pyrimidin-4-yl)-1,3-dihydro-indol-2-one] yielded a melting point of 305 to 308 °C. The half-inhibitory concentration (IC50) at His6-GSK-3β was above 10 µM. For the same compound, the half-inhibitory concentration (IC50) against CDK5/GST-p25 is above 10 µM.

`C=CCNc1nc(C2C(=O)Nc3ccc(C(F)(F)F)cc32)c2cn(C3CCCC3)nc2n1` (stereo not drawn) [Example 248, 3-(6-Allylamino-2-cyclopentyl-2H-pyrazolo[3,4-d]pyrimidin-4-yl)-5-trifluoromethyl-1,3-dihydro-indol-2-one] gave a melting point above 300 °C. In addition, the IC50 on His6-GSK-3β is below 0.3 µM. The compound also yielded a concentration for half-maximal inhibition (IC50) at CDK5/GST-p25 above 10 µM.

Compound `CCOCCn1cc2c(C3C(=O)Nc4ccc(Br)cc43)nc(Cl)nc2n1` (stereo not drawn) [Example 236, 5-Bromo-3-[6-chloro-2-(2-ethoxy-ethyl)-2H-pyrazolo [3,4-d]pyrimidin-4-yl)-1,3-dihydro-indol-2-one] had a melting point of 260 to 263 °C. For the same compound, at His6-GSK-3β, the IC50 is above 10 µM. Further, the IC50 against CDK5/GST-p25 was above 10 µM.

The compound `O=C1Nc2cc(F)ccc2C1c1ncnc2c1cnn2C1CCCCC1` (stereo not drawn) [Example 73, 3-(1-Cyclohexyl-1H-pyrazolo[3,4-d]pyrimidin-4-yl)-6-fluoro-1,3-dihydro-indol-2-one] showed a melting point of 277 to 280 °C. For the same compound, the IC50 at His6-GSK-3β was above 10 µM. Besides, the 50% inhibitory concentration (IC50) against CDK5/GST-p25 is above 10 µM.
